Data from US11951113B2, “Synergestic combination composition comprising a steroidal saponin, a first polyphenolic compound and a second polyphenolic compound” (NEURALIA, priority 2018, dated 2024).

System: primary cortical neurons injured by glutamate
Assay: Neuroprotection of primary cortical neurons injured by glutamate: neuron survival and neurite network (MAP-2 staining)
Assay type: cell-based, rat
Conditions: for effect on neuritic network / effect on neuron survival: glutamate 40 μM
Experimental: Rat cortical neurons were cultured as described by Singer et al., (J. Neuroscience, (1999), 19(7), 2455-2463) and Callizot et al. (J. Neurosc., (2013), Res. 91(5), 706-716).
Pregnant females (Wistar; JanvierLabs, St Berthevin, France) at 15 days of gestation were killed by cervical dislocation. Foetuses were collected and immediately placed in ice-cold L15 Leibovitz medium (Pan Biotech, Aidenbach, Germany) with a 2% penicillin (10,000 U/ml) and streptomycin (10 mg/ml) solution (PS; Pan Biotech, Aidenbach, Germany) and 1% bovine serum albumin (BSA; Pan Biotech, Aidenbach, Germany). Cortex was treated for 20 min at 37° C. with a trypsin-EDTA (Pan Biotech, Aidenbach, Germany) solution at a final concentration of 0.05% trypsin and 0.02% EDTA. The dissociation was stopped by addition of Dulbecco's modified Eagle's medium (DMEM) with 4.5 g/liter of glucose (Pan Biotech, Aidenbach, Germany), containing DNAse I grade II (final concentration 0.5 mg/ml; Pan Biotech, Germany) and 10% fetal calf serum (FCS; Invitrogen, Cergy Pointoise, France). Cells were mechanically dissociated by three forced passages through the tip of a 10-ml pipette. Cells were then centrifuged at 515 g for 10 min at 4° C. The supernatant was discarded, and the pellet was resuspended in a defined culture medium consisting of Neurobasal medium (Invitrogen, Cergy Pointoise, France) with a 2% solution of B27 supplement (Invitrogen, Cergy Pointoise, France), 2 mmol/liter of L-glutamine (Pan Biotech, Aidenbach, Germany), 2% of PS solution, and 10 ng/ml of brain-derived neurotrophic factor (BDNF; Pan Biotech, Aidenbach, Germany). Viable cells were counted in a Neubauer cytometer, using the trypan blue exclusion test. The cells were seeded at a density of 30,000 per well in 96-well plates precoated with poly-L-lysine (Corning Biocoat, Tewksbury, USA) and were cultured at 37° C. in an air (95%)-CO2 (5%) incubator. The medium was changed every 2 days. The cortical neurons were intoxicated with glutamate solutions (see below) after 13 days of culture.
On day 13, glutamate (Sigma Aldrich, Lyon, France) was added into cell culture to a final concentration of 40 μM diluted in control medium in presence or absence of test compounds for 20 min. After 20 min, the cells were washed-out and new fresh medium containing or not NSPXX-E2 or NSPXX-E1 extracts was added for 48 h additional time.
After 48 hours of glutamate intoxication, cells were fixed by a cold solution of ethanol (95%, Sigma) and acetic acid (5%, Sigma) for 5 min at −20° C. After permeabilization with 0.1% of saponin (Sigma), cells were incubated for 2 h with mouse monoclonal antibody anti microtubule-associated-protein 2 (MAP-2; Sigma) at dilution of 1/400 in PBS (Pan biotech) containing 1% foetal calf serum (Invitrogen) and 0.1% of saponin.
(§1) For each condition 6 wells were assessed, 30 pictures per well were taken using MetaXpress (molecular device) with 20× magnification (30 pictures at X20 representing ˜80% of the total well surface), to assess neurite network (MAP-2 staining). Analysis of picture was done using MetaXpress custum module editor software (molecular device), the total neurite length per picture was recorded). A mean neurite length of the ten pictures was automatically calculated per well, then one data was provided per well (total of 6 raw data were provided per condition).
as §1, with “magnification” for “magnification (30 pictures at X20 representing ˜80% of the total well surface),”, “cell bodies” for “neurite network”, “number of neurons” for “total neurite length”, “recorded.” for “recorded).”, “of neuron number” for “neurite length”
All values were expressed as mean+/−s.e.mean. […]

Compound: COc1cc(/C=C/C(=O)O)ccc1O [FA, ferulic acid]
- effect on neuritic network (1 μM-100 μM, 20 min): significant protective effect

Compound: C[C@@H]1CC[C@@]2(OC1)O[C@H]1C[C@H]3[C@@H]4CC=C5C[C@@H](O[C@@H]6O[C@H](CO)[C@@H](O[C@@H]7O[C@@H](C)[C@H](O)[C@@H](O)[C@H]7O)[C@H](O)[C@H]6O[C@@H]6O[C@@H](C)[C@H](O)[C@@H](O)[C@H]6O)CC[C@]5(C)[C@H]4CC[C@]3(C)[C@H]1[C@@H]2C [DIOS, dioscin]
- effect on neuritic network (6.3 nM-630 nM, 20 min): significant protective effect

Compound: O=C(O)c1cc(O)c(O)c(O)c1 [Gallic acid, gallic acid]
- viability at 10 µM (Rattus norvegicus, Primary cortical neuron, 20 min): ~80%
- effect on neuritic network (between 10 pM and 1 μM, 20 min): significant protective effect

Compound: catechin
- effect on neuritic network (1 nM-1 μM, 20 min): protective effect
- effect on neuron survival (between 100 nM and 1 μM, 20 min): significant protective effect
- effect on neuritic network (between 500 nM and 5 μM, 20 min): significant protective effect

Compound: C[C@H]1CC[C@@]2(OC1)O[C@H]1C[C@H]3[C@@H]4CC[C@@H]5C[C@@H](O)CC[C@]5(C)[C@H]4CC[C@]3(C)[C@H]1[C@@H]2C [SAR, sarsasapogenin]
- effect on neuritic network (100 pM-100 nM, 20 min): protective effect
- effect on neuron survival (100 nM, 20 min): significant protective effect
- toxicity for cortical neurons and for neuritic network (1 μmol/L or 10 μmol/L): toxic
- toxicity on cortical neurons (at the highest concentrations tested): toxic
- effect on neuritic network (between 100 pM and 10 nM, 20 min): significant protective effect
- reduction of the steroidal saponin concentration compared to sarsasapogenin used alone (sarsasapogenin combined with caffeic acid or ferulic acid): 10 fold

Compound: O=c1c(O)c(-c2ccc(O)c(O)c2)oc2cc(O)cc(O)c12 [quercetin]
- effect on neurite network (100 nM and 1 μM, glutamate injury): significant protective effect

Compound: C[C@@H]1CC[C@@]2(OC1)O[C@H]1C[C@H]3[C@@H]4CC=C5C[C@@H](O)CC[C@]5(C)[C@H]4CC[C@]3(C)[C@H]1[C@@H]2C [DIOSG, diosgenin]
- effect on neuritic network (3 pM-30 pM, 20 min): significant protective effect
- reduction of the concentration of diosgenin compared to diosgenin used alone (diosgenin combined with caffeic acid or ferulic acid): 10 fold
